Data: patent publication US10647747B2, “Cyclosporin derivatives and uses thereof” (S&T Global Inc., priority 2010, dated 2020)
Like-named read-outs stand apart in the source and are kept apart here. *1 amine or outer side, *2 acyl side, *3 side chain or, on linkers, in order; H or OH if unused. Where a SMILES comes first, the peptide text is derived from it. [ ]: non-standard residue; d: D form. The star is where a group is joined. NMe(dihydroBmt) = CCCC[C@@H](C)[C@@H](O)[C@H](NC)C(=O)O; X12 = COc1ccc(COC(C)(C)CC(C(=O)[*:2])N(C)[*:1])cc1; MeBmt = C/C=C/C[C@@H](C)[C@@H](O)[C@H](NC)C(=O)O; X11 = CN([C@@H](CC(C)(C)OCCO)C(=O)[*:2])[*:1]; X6 = CCN(CC)CCS[C@H](C(=O)[*:2])N(C)[*:1]; X3 = CC=CCC(C)C(O)C(C(=O)[*:2])N(C)[*:1]; X7 = CN(C(SCCCN1CCOCC1)C(=O)[*:2])[*:1]; NMeI = CC[CH](C)[CH](NC)C(=O)O; NMeL = CN[CH](CC(C)C)C(=O)O; NMeV = CN[CH](C(=O)O)C(C)C; Et2NCH2CH2 = CCN(CC)CC*; NMeS = CN[CH](CO)C(=O)O; Abu = CC[CH](N)C(=O)O; Sar = CNCC(=O)O

System: HCV replicon in cell line ET (luc-ubi-neo/ET), Huh7 human hepatoma
Assay: HCV subgenomic replicon assay, luciferase end point
Format: cell-based
Conditions: read-out: Antiviral activity EC50
[1] = HCV subgenomic replicon, cell line ET (luc-ubi-neo/ET) Huh7, luciferase end point
[2] = Table 12, HCV replicon luciferase
[3] = Table 13, HCV replicon luciferase
[4] = Hepatitis C virus, Huh-7, Table 14, HCV replicon luciferase
[5] = Hepatitis C virus, Huh-7, HCV subgenomic replicon, cell line ET (luc-ubi-neo/ET) Huh7, luciferase end point
[6] = Hepatitis C virus, Huh-7, Table 16, HCV replicon luciferase
[7] = Table 16, HCV replicon luciferase

Compound `CC=CCC(C)C(O)C1C(=O)NC(CC)C(=O)N(C)C(CSCCN2CCCCC2)C(=O)N(C)C(CC(C)(C)O)C(=O)NC(C(C)C)C(=O)N(C)C(CC(C)C)C(=O)NC(C)C(=O)NC(C)C(=O)N(C)C(CC(C)C)C(=O)N(C)C(CC(C)C)C(=O)N(C)C(C(C)C)C(=O)N1C` (stereo not drawn) has an EC50 [1] of 80 nM.
`CC=CCC(C)C(O)C1C(=O)NC(CC)C(=O)N(C)C(SCCCN2CCOCC2)C(=O)N(C)C(C(C)C)C(=O)NC(C(C)C)C(=O)N(C)C(CC(C)C)C(=O)NC(C)C(=O)NC(C)C(=O)N(C)C(CC(C)C)C(=O)N(C)C(CC(C)C)C(=O)N(C)C(C(C)C)C(=O)N1C` [[(S)-(3-(N-Morpholino)propylthio-Sar]-3-[N-MeVal]-4-cyclosporin] (cyclo([X3][Abu][X7][NMeV]V[NMeL]AA[NMeL][NMeL][NMeV]); configuration not given here) showed an EC50 [1] of 110 nM.
With `CC=CCC(C)C(O)C1C(=O)NC(CC)C(=O)N(C)C(CSCCN(CC)CC)C(=O)N(C)C(CC(C)(C)OC)C(=O)NC(C(C)C)C(=O)N(C)C(CC(C)C)C(=O)NC(C)C(=O)NC(C)C(=O)N(C)C(CC(C)C)C(=O)N(C)C(CC(C)C)C(=O)N(C)C(C(C)C)C(=O)N1C` (stereo not drawn) the EC50 [1] was 90 nM.
In the case of `C/C=C/C[C@@H](C)[C@@H](O)[C@H]1C(=O)N[C@@H](CC)C(=O)N(C)[C@H](SCCN(CC)CC)C(=O)N(C)[C@@H](C(C)C)C(=O)N[C@@H](C(C)C)C(=O)N(C)[C@@H](CC(C)C)C(=O)N[C@@H](C)C(=O)N[C@H](C)C(=O)N(C)[C@@H](CC(C)C)C(=O)N(C)[C@@H](CC(C)C)C(=O)N(C)[C@@H](C(C)C)C(=O)N1C` [(R)-2-(N,N-Diethylamino)ethylthio-Sar]-3-[N-MeVal]-4-cyclosporin] (cyclo(A[dA][NMeL][NMeL][NMeV][MeBmt][Abu][X6][NMeV]V[NMeL])), the EC50 [2] is reported as 3660 nM.
In the case of `CC=CCC(C)C(O)C1C(=O)NC(CC)C(=O)N(C)C(SCCCN2CCOCC2)C(=O)N(C)C(CC(C)(C)OCc2ccc(OC)cc2)C(=O)NC(C(C)C)C(=O)N(C)C(CC(C)C)C(=O)NC(C)C(=O)NC(C)C(=O)N(C)C(CC(C)C)C(=O)N(C)C(CC(C)C)C(=O)N(C)C(C(C)C)C(=O)N1C` (stereo not drawn) (cyclo([X3][Abu][X7][X12]V[NMeL]AA[NMeL][NMeL][NMeV]); configuration not given here), the EC50 [3] is reported as 280 nM.
With `CC=CCC(C)C(O)C1C(=O)NC(CC)C(=O)N(C)CC(=O)N(C)C(CO)C(=O)NC(C(C)C)C(=O)N(C)C(CC(C)C)C(=O)NC(C)C(=O)NC(C)C(=O)N(C)C(CC(C)C)C(=O)N(C)C(CC(C)C)C(=O)N(C)C(C(C)C)C(=O)N1C` (stereo not drawn) [[N-MeSer]-4-cyclosporin] the EC50 [3] was 560 nM.
For `CC=CCC(C)C(O)C1C(=O)NC(CC)C(=O)N(C)C(CSCCCN2CCCC2)C(=O)N(C)C(CC(C)(C)O)C(=O)NC(C(C)C)C(=O)N(C)C(CC(C)C)C(=O)NC(C)C(=O)NC(C)C(=O)N(C)C(CC(C)C)C(=O)N(C)C(CC(C)C)C(=O)N(C)C(C(C)C)C(=O)N1C` (stereo not drawn), the EC50 [1] was 100 nM.
`CCCC[C@@H](C)[C@@H](O)[C@H]1C(=O)N[C@@H](CC)C(=O)N(C)CC(=O)N(C)[C@@H](CC(C)(C)OCCO)C(=O)N[C@@H](C(C)C)C(=O)N(C)[C@@H](CC(C)C)C(=O)N[C@@H](C)C(=O)N[C@H](C)C(=O)N(C)[C@@H](CC(C)C)C(=O)N(C)[C@@H](CC(C)C)C(=O)N(C)[C@@H](C(C)C)C(=O)N1C` [[γ-(2-Hydroxyethoxy)-N-MeLeu]-4-dihydrocyclosporin] (cyclo(A[dA][NMeL][NMeL][NMeV][NMe(dihydroBmt)][Abu][Sar][X11]V[NMeL])) showed an EC50 [3] of 430 nM.
In the case of `C/C=C/C[C@@H](C)[C@@H](O)[C@H]1C(=O)N[C@@H](CC)C(=O)N(C)[C@H](CSCCCN2CCOCC2)C(=O)N(C)[C@@H](CC(C)(C)O)C(=O)N[C@@H](C(C)C)C(=O)N(C)[C@@H](CC(C)C)C(=O)N[C@@H](C)C(=O)N[C@H](C)C(=O)N(C)[C@@H](CC(C)C)C(=O)N(C)[C@@H](CC(C)C)C(=O)N(C)[C@@H](C(C)C)C(=O)N1C`, the EC50 [4] is reported as 20 nM.
Work on `C/C=C/C[C@@H](C)[C@@H](O)[C@H]1C(=O)N[C@@H](CC)C(=O)N(C)[C@H](CSCCNCC(C)(C)C)C(=O)N(C)[C@@H](CC(C)(C)O)C(=O)N[C@@H](C(C)C)C(=O)N(C)[C@@H](CC(C)C)C(=O)N[C@@H](C)C(=O)N[C@H](C)C(=O)N(C)[C@@H](CC(C)C)C(=O)N(C)[C@@H](CC(C)C)C(=O)N(C)[C@@H](C(C)C)C(=O)N1C` yielded an EC50 [5] of 60 nM and an EC50 [6] of 50 nM.
With `CC=CCC(C)C(O)C1C(=O)NC(CC)C(=O)N(C)C(CSCCCN2CCCCC2)C(=O)N(C)C(CC(C)(C)O)C(=O)NC(C(C)C)C(=O)N(C)C(CC(C)C)C(=O)NC(C)C(=O)NC(C)C(=O)N(C)C(CC(C)C)C(=O)N(C)C(CC(C)C)C(=O)N(C)C(C(C)C)C(=O)N1C` (stereo not drawn) the EC50 [1] was 50 nM.
For `C/C=C/C[C@@H](C)[C@@H](O)[C@H]1C(=O)N[C@@H](CC)C(=O)N(C)CC(=O)N(C)[C@@H](CC(C)(C)OCSC)C(=O)N[C@@H](C(C)C)C(=O)N(C)[C@@H](CC(C)C)C(=O)N[C@@H](C)C(=O)N[C@H](C)C(=O)N(C)[C@@H](CC(C)C)C(=O)N(C)[C@@H](CC(C)C)C(=O)N(C)[C@@H](C(C)C)C(=O)N1C` [[(γ-Methylthio)methoxy-N-MeLeu]-4-cyclospori], the EC50 [3] was 400 nM.
With `CC=CCC(C)C(O)C1C(=O)NC(CC)C(=O)N(C)C(CSCCN(CC)CC(C)(C)C)C(=O)N(C)C(CC(C)(C)O)C(=O)NC(C(C)C)C(=O)N(C)C(CC(C)C)C(=O)NC(C)C(=O)NC(C)C(=O)N(C)C(CC(C)C)C(=O)N(C)C(CC(C)C)C(=O)N(C)C(C(C)C)C(=O)N1C` (stereo not drawn) the EC50 [1] was 60 nM.
`C/C=C/C[C@@H](C)[C@@H](O)[C@H]1C(=O)N[C@@H](CC)C(=O)N(C)[C@H](C)C(=O)N(CC)[C@@H](C(C)C)C(=O)N[C@@H](C(C)C)C(=O)N(C)[C@@H](CC(C)C)C(=O)N[C@@H](C)C(=O)N[C@H](C)C(=O)N(C)[C@@H](CC(C)C)C(=O)N(C)[C@@H](CC(C)C)C(=O)N(C)[C@@H](C(C)C)C(=O)N1C` [[D-N-MeAla]-3-[N-EtVal]-4-cyclosporin, reference compound] gave an EC50 [5] of 70 nM and an EC50 [6] of 50 nM.
In the case of `CC=CCC(C)C(O)C1C(=O)NC(CC)C(=O)N(C)C(COCCN(CC)CC)C(=O)N(C)C(C(C)CC)C(=O)NC(C(C)C)C(=O)N(C)C(CC(C)C)C(=O)NC(C)C(=O)NC(C)C(=O)N(C)C(CC(C)C)C(=O)N(C)C(CC(C)C)C(=O)N(C)C(C(C)C)C(=O)N1C` [[(R)-(2-(N,N-Diethylamino)ethoxy)methyl-Sar]-3-[N-MeIle]-4-cyclosporin] (cyclo([X3][Abu][NMeS](Et2NCH2CH2)[NMeI]V[NMeL]AA[NMeL][NMeL][NMeV]); configuration not given here), the EC50 [1] is reported as 160 nM.
“(R)-2-(N-iso-Butyl-N-iso-propylamino)ethylthio-Sar]-3-cyclosporin” was tested, and the EC50 [2] was 4650 nM.
With `CC=CCC(C)C(O)C1C(=O)NC(CC)C(=O)N(C)C(SCCNCC(C)(C)C)C(=O)N(C)C(CC(C)C)C(=O)NC(C(C)C)C(=O)N(C)C(CC(C)C)C(=O)NC(C)C(=O)NC(C)C(=O)N(C)C(CC(C)C)C(=O)N(C)C(CC(C)C)C(=O)N(C)C(C(C)C)C(=O)N1C` [(R)-2-(N-neo-Pentylamino)ethylthio-Sar]-3-cyclosporin] the EC50 [2] was 3090 nM.
`CC=CCC(C)C(O)C1C(=O)NC(CC)C(=O)N(C)C(SCCN(C)C)C(=O)N(C)C(C(C)C)C(=O)NC(C(C)C)C(=O)N(C)C(CC(C)C)C(=O)NC(C)C(=O)NC(C)C(=O)N(C)C(CC(C)C)C(=O)N(C)C(CC(C)C)C(=O)N(C)C(C(C)C)C(=O)N1C` [(S)-2-(N,N-Dimethylamino)ethylthio-Sar]-3-[N-MeVal]-4-cyclosporin] gave an EC50 [2] of 130 nM.
`CC=CCC(C)C(O)C1C(=O)NC(CC)C(=O)N(C)C(CSCCCN2CCSCC2)C(=O)N(C)C(CC(C)(C)O)C(=O)NC(C(C)C)C(=O)N(C)C(CC(C)C)C(=O)NC(C)C(=O)NC(C)C(=O)N(C)C(CC(C)C)C(=O)N(C)C(CC(C)C)C(=O)N(C)C(C(C)C)C(=O)N1C` (stereo not drawn) showed an EC50 [7] of 50 nM.
For `CC=CCC(C)C(O)C1C(=O)NC(CC)C(=O)N(C)C(COCCN(CC)CC)C(=O)N(C)C(CC(C)(C)O)C(=O)NC(C(C)C)C(=O)N(C)C(CC(C)C)C(=O)NC(C)C(=O)NC(C)C(=O)N(C)C(CC(C)C)C(=O)N(C)C(CC(C)C)C(=O)N(C)C(C(C)C)C(=O)N1C` (stereo not drawn), the EC50 [1] was 120 nM.
With `C/C=C/C[C@@H](C)[C@@H](O)[C@H]1C(=O)N[C@@H](CC)C(=O)N(C)[C@H](COCCN(CC)CC)C(=O)N(C)[C@@H](CC(C)(C)OC)C(=O)N[C@@H](C(C)C)C(=O)N(C)[C@@H](CC(C)C)C(=O)N[C@@H](C)C(=O)N[C@H](C)C(=O)N(C)[C@@H](CC(C)C)C(=O)N(C)[C@@H](CC(C)C)C(=O)N(C)[C@@H](C(C)C)C(=O)N1C` the EC50 [1] was 60 nM.
For `C/C=C/C[C@@H](C)[C@@H](O)[C@H]1C(=O)N[C@@H](CC)C(=O)N(C)[C@H](CSCCCN(C)C)C(=O)N(C)[C@@H](CC(C)(C)O)C(=O)N[C@@H](C(C)C)C(=O)N(C)[C@@H](CC(C)C)C(=O)N[C@@H](C)C(=O)N[C@H](C)C(=O)N(C)[C@@H](CC(C)C)C(=O)N(C)[C@@H](CC(C)C)C(=O)N(C)[C@@H](C(C)C)C(=O)N1C`, the EC50 [4] was 50 nM.
For `C/C=C/C[C@@H](C)[C@@H](O)[C@H]1C(=O)N[C@@H](CC)C(=O)N(C)[C@H](CSCCN2CCN(CC)CC2)C(=O)N(C)[C@@H](CC(C)(C)O)C(=O)N[C@@H](C(C)C)C(=O)N(C)[C@@H](CC(C)C)C(=O)N[C@@H](C)C(=O)N[C@H](C)C(=O)N(C)[C@@H](CC(C)C)C(=O)N(C)[C@@H](CC(C)C)C(=O)N(C)[C@@H](C(C)C)C(=O)N1C`, the EC50 [7] was 60 nM.
In the case of `CC=CCC(C)C(O)C1C(=O)NC(CC)C(=O)N(C)C(COCCN2CCOCC2)C(=O)N(C)C(CC(C)(C)OC)C(=O)NC(C(C)C)C(=O)N(C)C(CC(C)C)C(=O)NC(C)C(=O)NC(C)C(=O)N(C)C(CC(C)C)C(=O)N(C)C(CC(C)C)C(=O)N(C)C(C(C)C)C(=O)N1C` [[(R)-(2-(N-Morpholino)ethoxy)methyl-Sar]-3-[(γ-methoxy)-N-MeLeu]-4-cyclosporin], the EC50 [1] is reported as 150 nM.
Compound `CC=CCC(C)C(O)C1C(=O)NC(CC)C(=O)N(C)C(CSCCCCN(CC(C)C)CC(C)C)C(=O)N(C)C(CC(C)(C)O)C(=O)NC(C(C)C)C(=O)N(C)C(CC(C)C)C(=O)NC(C)C(=O)NC(C)C(=O)N(C)C(CC(C)C)C(=O)N(C)C(CC(C)C)C(=O)N(C)C(C(C)C)C(=O)N1C` (stereo not drawn) has an EC50 [7] of 40 nM.
